Results reported in ChEMBL document CHEMBL5500353, “Discovery of novel amide derivatives as potent quorum sensing inhibitors of Pseudomonas aeruginosa” (Eur J Med Chem, 2024).
Blank lines part the entries; values can stand above or below the molecule they belong to. Calls of active or inactive are those of the source. The calls are words filed in the database; no cut-off is given here.

Tests used:
[1] = Inhibition of quorum sensing system in Pseudomonas aeruginosa PAO1-lasB-gfp assessed as inhibition of lasB expression at 50 ug/ml incubated for 8 hrs under shaking condition by microplate reader based analysis relative to control; settings: dose 50.0 µg/ml
[2] = Inhibition of quorum sensing system in Pseudomonas aeruginosa PAO1-rhlA-gfp assessed as inhibition of rhlA expression at 50 ug/ml incubated for 8 hrs under shaking condition by microplate reader based analysis relative to control; settings: dose 50.0 µg/ml
[3] = Inhibition of quorum sensing system in Pseudomonas aeruginosa PAO1-pqsA-gfp assessed as inhibition of pqsA expression at 50 ug/ml incubated for 8 hrs under shaking condition by microplate reader based analysis relative to control; settings: dose 50.0 µg/ml
[4] = system: Pseudomonas aeruginosa; assay: Antibacterial activity against Pseudomonas aeruginosa PAO1 at 80 to 160 ug/ml incubated for 48 hrs by absorbance based analysis; format: functional, organism-based; settings: dose 80-160 µg/ml
[5] = system: Pseudomonas aeruginosa; assay: Anti-virulence activity in Pseudomonas aeruginosa PAO1 assessed as reduction in elastase production at 160 ug/ml by congo red dye based microplate reader analysis; format: functional, organism-based; settings: dose 160.0 µg/ml
[6] = system: Pseudomonas aeruginosa; assay: Anti-virulence activity in Pseudomonas aeruginosa PAO1 assessed as reduction in rhamnolipid production at 160 ug/ml incubated for 48 hrs by absorbance based analysis; format: functional, organism-based; settings: dose 160.0 µg/ml
[7] = system: Pseudomonas aeruginosa; assay: Anti-virulence activity in Pseudomonas aeruginosa PAO1 assessed as reduction in pyocyanin production at 160 ug/ml by absorbance based analysis; format: functional, organism-based; settings: dose 160.0 µg/ml
[8] = system: Pseudomonas aeruginosa; assay: Anti-virulence activity in Pseudomonas aeruginosa PAO1 assessed as reduction in pyoverdine production at 160 ug/ml by absorbance based analysis; format: functional, organism-based; settings: dose 160.0 µg/ml
[9] = system: Pseudomonas aeruginosa; assay: Antibiofilm activity against Pseudomonas aeruginosa PAO1 assessed as reduction in biofilm production at 160 ug/ml incubated for 72 hrs by crystal violet staining based analysis; format: functional, organism-based; settings: dose 160.0 µg/ml
[10] = system: Pseudomonas aeruginosa; assay: Anti-motility activity against Pseudomonas aeruginosa PAO1 assessed as reduction in swarming at 160 ug/ml incubated for 12 hrs; format: functional, organism-based; settings: dose 160.0 µg/ml
[11] = Cytotoxicity against human HepG2 cells assessed as inhibition of cell growth at 100 ug/ml measured after 48 hrs by CCK-8 method relative to control; format: toxicity, cell-based; settings: at 100 µg/mL
[12] = Cytotoxicity against human HepG2 cells assessed as inhibition of cell growth at 10 ug/ml measured after 48 hrs by CCK-8 method relative to control; format: toxicity, cell-based; settings: at 10 µg/mL
[13] = system: Pseudomonas aeruginosa; assay: Antibacterial activity against Pseudomonas aeruginosa infected in Galleria mellonella larvae infection model assessed as increase in survival rate at 160 ug/ml preincubated with measured after 72 hrs; format: functional, organism-based; settings: dose 160.0 µg/ml
[14] = system: Pseudomonas aeruginosa; assay: Downregulation of lasR mRNA expression in Pseudomonas aeruginosa PAO1 at 160 ug/ml incubated for 6 hrs by RT-qPCR analysis; format: functional; settings: dose 160.0 µg/ml
[15] = system: Pseudomonas aeruginosa; assay: Downregulation of lasA mRNA expression in Pseudomonas aeruginosa PAO1 at 160 ug/ml incubated for 6 hrs by RT-qPCR analysis; format: functional; settings: dose 160.0 µg/ml
[16] = system: Pseudomonas aeruginosa; assay: Downregulation of lasB mRNA expression in Pseudomonas aeruginosa PAO1 at 160 ug/ml incubated for 6 hrs by RT-qPCR analysis; format: functional; settings: dose 160.0 µg/ml
[17] = system: Pseudomonas aeruginosa; assay: Downregulation of lasl-mRNA expression in Pseudomonas aeruginosa PAO1 at 160 ug/ml incubated for 6 hrs by RT-qPCR analysis; format: functional; settings: dose 160.0 µg/ml
[18] = system: Pseudomonas aeruginosa; assay: Downregulation of pqsA mRNA expression in Pseudomonas aeruginosa PAO1 at 160 ug/ml incubated for 6 hrs by RT-qPCR analysis; format: functional; settings: dose 160.0 µg/ml
[19] = system: Pseudomonas aeruginosa; assay: Downregulation of pqsR mRNA expression in Pseudomonas aeruginosa PAO1 at 160 ug/ml incubated for 6 hrs by RT-qPCR analysis; format: functional; settings: dose 160.0 µg/ml
[20] = system: Pseudomonas aeruginosa; assay: Downregulation of rhll-mRNA expression in Pseudomonas aeruginosa PAO1 at 160 ug/ml incubated for 6 hrs by RT-qPCR analysis; format: functional; settings: dose 160.0 µg/ml
[21] = system: Pseudomonas aeruginosa; assay: Downregulation of rhlR mRNA expression in Pseudomonas aeruginosa PAO1 at 160 ug/ml incubated for 6 hrs by RT-qPCR analysis; format: functional; settings: dose 160.0 µg/ml
[22] = system: Pseudomonas aeruginosa; assay: Downregulation of phzM mRNA expression in Pseudomonas aeruginosa PAO1 at 160 ug/ml incubated for 6 hrs by RT-qPCR analysis; format: functional; settings: dose 160.0 µg/ml
[23] = target: T1, Transcriptional activator protein LasR (Pseudomonas aeruginosa (strain ATCC 15692 / PAO1 / 1C / PRS 101 / LMG12228), UniProt P25084); assay: Binding affinity to Pseudomonas aeruginosa PAO1 LasR assessed as dissociation constant by SPR analysis
T1 sequence (P25084 whole entry): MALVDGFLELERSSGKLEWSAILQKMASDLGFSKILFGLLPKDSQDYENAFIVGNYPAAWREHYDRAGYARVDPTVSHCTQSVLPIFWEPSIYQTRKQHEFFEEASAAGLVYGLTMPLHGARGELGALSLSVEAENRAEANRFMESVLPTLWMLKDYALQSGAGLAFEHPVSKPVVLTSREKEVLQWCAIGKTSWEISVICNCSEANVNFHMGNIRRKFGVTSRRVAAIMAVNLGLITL

[24] = target: T2, Transcriptional regulator MvfR (Pseudomonas aeruginosa PA14, UniProt A0A072ZLE6); assay: Binding affinity to Pseudomonas aeruginosa PAO1 PqsR expressed in Escherichia coli BL21 assessed as dissociation constant by SPR analysis
T2 sequence (A0A072ZLE6 whole entry): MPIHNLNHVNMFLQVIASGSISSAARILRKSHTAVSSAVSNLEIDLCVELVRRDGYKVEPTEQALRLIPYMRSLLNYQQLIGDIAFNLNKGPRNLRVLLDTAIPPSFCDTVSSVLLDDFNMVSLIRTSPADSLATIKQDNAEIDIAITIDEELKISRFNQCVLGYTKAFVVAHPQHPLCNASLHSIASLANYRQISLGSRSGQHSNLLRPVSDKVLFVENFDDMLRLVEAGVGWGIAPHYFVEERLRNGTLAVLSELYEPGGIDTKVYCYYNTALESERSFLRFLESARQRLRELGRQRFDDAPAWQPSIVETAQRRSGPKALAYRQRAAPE

[25] = system: Pseudomonas aeruginosa; assay: Downregulation of chiC mRNA expression in Pseudomonas aeruginosa PAO1 at 160 ug/ml incubated for 6 hrs by RT-qPCR analysis; format: functional; settings: dose 160.0 µg/ml
[26] = system: Pseudomonas aeruginosa; assay: Antibacterial activity against Pseudomonas aeruginosa PAO1 at 80 ug/ml incubated for 48 hrs by absorbance based analysis; format: functional, organism-based; settings: dose 80.0 µg/ml

SMILES: CCC(=O)NCC(C)(C)O
inhibition [1]: 7.26%
inhibition [2]: 28.3%

SMILES: C=CC(=O)NCC(=C)C
inhibition [1]: 54.7%
inhibition [2]: 63.9%
inhibition [3]: 2.45%

SMILES: C/C=C/C=C/C(=O)NCC(C)C
inhibition [1]: 82.2%
inhibition [2]: 84.1%
inhibition [3]: 65.5%
Activity [4]: inactive
Activity [5]: Active
Activity [6]: Active
Activity [7]: Active
Activity [8]: Active
Activity [9]: Active
Activity [10]: Active
inhibition at 48 h, 100 ug/ml [11]: 30.1%
inhibition at 48 h, 10 ug/ml [12]: -2.16%
Activity [13]: Active
Activity [14]: inactive
Activity [15]: Active
Activity [16]: Active
Activity [17]: Active
Activity [18]: Active
Activity [19]: inactive
Activity [20]: Active
Activity [21]: Active
Activity [22]: Active
Kd [23]: 1230 µM
Kd [24]: 8.36 µM

SMILES: C=C(C)CNC(=O)/C=C/CCC
inhibition [1]: 77.1%
inhibition [2]: 85%
inhibition [3]: 40%
Activity [4]: inactive
Activity [5]: Active
Activity [6]: Active
Activity [7]: Active
Activity [8]: Active
Activity [9]: Active
Activity [10]: Active
inhibition at 48 h, 100 ug/ml [11]: 18.9%
inhibition at 48 h, 10 ug/ml [12]: 9.91%
Activity [13]: Active
Activity [14]: inactive
Activity [15]: Active
Activity [16]: Active
Activity [17]: Active
Activity [18]: Active
Activity [19]: inactive
Activity [20]: Active
Activity [21]: Active
Activity [22]: Active
Activity [25]: Active

SMILES: C=CC(=O)NCC(C)(C)O
inhibition [1]: 6.82%
inhibition [2]: 29.7%
inhibition [3]: 0.28%

SMILES: C=C(C)CNC(=O)CCC
inhibition [1]: 61.5%
inhibition [2]: 64.5%
inhibition [3]: 38.1%

SMILES: C=C(C)CNC(C)=O
inhibition [1]: 10.5%
inhibition [2]: 10.2%
inhibition [3]: 59.1%

SMILES: C/C=C/C=C/C(=O)NCC(C)(C)O
inhibition [1]: 26.3%
inhibition [2]: 32.4%

SMILES: C=C(C)CNC(=O)/C=C/C=C/C
inhibition [1]: 38.9%
inhibition [2]: 56.8%
inhibition [3]: 11.8%

SMILES: CCC/C=C/C(=O)NCC(C)(C)O
inhibition [1]: 34.5%
inhibition [2]: 50.1%

SMILES: C/C=C/C(=O)NCC(C)(C)O
inhibition [1]: 29.9%
inhibition [2]: 41.9%

SMILES: C=C(C)CNC(=O)CCCCCC
inhibition [1]: 61.6%
inhibition [2]: 68.4%
inhibition [3]: 42.5%

SMILES: CC(=O)NCC(C)(C)O
inhibition [1]: 1.11%
inhibition [2]: 13.8%

SMILES: CC/C=C/C(=O)NCC(C)(C)O
inhibition [1]: 53.1%
inhibition [2]: 58.1%
inhibition [3]: -8.67%

SMILES: CCCC(=O)NCC(C)(C)O
inhibition [1]: 37.4%
inhibition [2]: 43.1%
inhibition [3]: -6.15%

SMILES: C=C(C)CNC(=O)/C=C/C
inhibition [1]: 67.5%
inhibition [2]: 80%
inhibition [3]: 38%

SMILES: C=CCSSCC=C [DIALLYLDISULFIDE]
inhibition [1]: 36.1%
inhibition [2]: 38%
inhibition [3]: 34.6%
Activity [26]: inactive
inhibition at 48 h, 100 ug/ml [11]: 18.1%

Second part, led by results:

inhibition [1]: 64.1%
inhibition [2]: 80.5%
inhibition [3]: 26.5%
SMILES: CCC/C=C/C(=O)NCC(C)C
Activity [25]: Active

inhibition [1]: 71.5%
inhibition [2]: 72.7%
inhibition [3]: 26.2%
SMILES: CC/C=C/C(=O)NCC(C)C

inhibition [1]: 77.2%
inhibition [2]: 65.8%
inhibition [3]: 30.2%
SMILES: CCCCC(=O)NCC(C)C

inhibition [1]: 54.6%
inhibition [2]: 71%
inhibition [3]: 27.8%
SMILES: CCC(=O)NCC(C)C

inhibition [1]: 72.7%
inhibition [2]: 79.7%
inhibition [3]: 36.1%
SMILES: C=C(C)CNC(=O)CCCCC

inhibition [1]: 2.28%
inhibition [2]: 8.21%
inhibition [3]: 5.99%
SMILES: CCCCCCC(=O)NCC(C)C

inhibition [1]: 55.1%
inhibition [2]: 68.6%
inhibition [3]: 12.6%
SMILES: C=CC(=O)NCC(C)C

inhibition [1]: 13.8%
inhibition [2]: 18.9%
inhibition [3]: 11%
SMILES: CC(=O)NCC(C)C

inhibition [1]: 72.2%
inhibition [2]: 76.9%
inhibition [3]: 26%
SMILES: C=C(C)CNC(=O)CCCC

inhibition [1]: 32.4%
inhibition [2]: 54.9%
SMILES: CCCCCC(=O)NCC(C)(C)O

inhibition [1]: 70%
inhibition [2]: 72.4%
inhibition [3]: 13.6%
SMILES: CCCCCC(=O)NCC(C)C

inhibition [1]: 65.7%
inhibition [2]: 65.4%
inhibition [3]: 29.8%
SMILES: CCCC(=O)NCC(C)C

inhibition [1]: 63.7%
inhibition [2]: 72.3%
inhibition [3]: 27.8%
SMILES: C/C=C/C(=O)NCC(C)C

inhibition [1]: 13.1%
inhibition [2]: 18.1%
SMILES: CCCCCCC(=O)NCC(C)(C)O

inhibition [1]: 40%
inhibition [2]: 55.8%
inhibition [3]: 1.47%
SMILES: CCCCC(=O)NCC(C)(C)O
